Consider 3 compounds from patent publication US20250017895A1, “FLAVANOID CONTAINING COMPOSITIONS AND METHODS OF USE THEREOF FOR THE TREATMENT OF MITOCHONDRIAL DISORDERS” (priority 2021, published 2025).

In series [1] the test system is Human podocytes (renal glomerular cells). Description: Human podocyte viability / cell death under rotenone complex I inhibition. To be noted: for cell death caused by rotenone (45% cell death): 12.5 nM rotenone.
Series [2] relates to Pdss2kd/kd mice. Description: Liver NAD+, NADH and NADH:NAD+ redox analysis in Pdss2kd/kd mice. It is filed as in vivo. To be noted: 5 μg/mL to 10 μg/mL in drinking water; 2 months. An excerpt: FIGS. 17A-17E: Biochemical analysis of mitochondrial amount (citrate synthase activity) and NADH:NAD+ redox balance in coenzyme Q deficient Pdss2^kd/kd mice. […] Biochemical studies are shown both by sex and all grouped together, where n=number of animals studied per group.
Untreated mice included 2M and 1F.

Series [3] concerns Pdss2kd/kd homozygous missense mutant mice. The series is described as follows: Liver mitochondrial content (VDAC western blot, citrate synthase activity) in Pdss2kd/kd mice. Format: in vivo. To be noted: 5 μg/mL or 10 μg/mL in drinking water; both sexes. On the technique in general: Immunoblotting shows a protein as a band on a membrane.
The subject of series [4] is human fibroblasts from a patient with FBXL4 disease. Description: FBXL4 patient fibroblast mitochondrial content by FACS of Mitotracker Green. The following applies: for increase in cellular mitochondrial content compared to baseline: overnight incubation, data not shown; for improvement of mitochondrial content: 24 hours, galactose media. Format: cell-based. As for the experimental part: (§1) Human fibroblasts were studied from a subject harboring a 1067del (p.Gly356Alafs*15) nonsense mutation in the maternal FBXL4 allele and a c. 1790A>C (p.GLn597Pro) missense mutation in the paternal FBXL4 allele (Gal et al, 2013). Fibroblasts were cultured in DMEM (1 g/L glucose, 0.8 g/L L-Glutamine, 110 mg/L Sodium Pyruvate). Light, fluorescence, confocal microscopy and transmission electron microscopy (TEM, Lavorato et al. 2017) methods were used to analyze proband fibroblasts and mitochondrial morphology at baseline and following metabolic stress induced by incubating cells for 48 hours in glucose/uridine-free media. Mitotracker green was used for fluorescence microscopy, Tom20 Antibody (Santa Cruz) and DAPI was used for confocal microscopy.
In general terms: In flow cytometry, cells or beads pass a laser one at a time.

The subject of series [5] is gas-1(fc21) ndufs2−/− complex I disease mutant worms. The series is described as follows: C. elegans gas-1(fc21) lifespan analysis. Format: in vivo. To be noted: FUDR used. The text has this: FIG. 2C, the Table below FIGS. 2A and 2B indicates specific values and P values calculated in Graphpad Prism v5.0 for graph shown in FIG. 2B (survival data is shown in days).
(§2) Neuromuscular activity, and lifespan were quantified in the C. elegans gas-1(fc21) ndufs2^−/− mutants. A semi-automated screening method (Mathew et al, 2016) was used to test drug treatment effects on an integrated C. elegans health endpoint of fecundity, brood size, and behavior.
(−) Epicatechin and (+) Epicatechins act through mimicry of the endogenous mitochondrial steroid 11-β-hydroxypregnenolone (11-OHP), a potent inducer of mitochondrial biogenesis. C. elegans nematode strains studied included wild-type (N2 Bristol) and gas-1(fc21) mutants. […] FIGS. 2D, 2E and 2F are graphs show a side-by-side comparison of (+)-epicatechin, (−)-epicatechin and 11-0HP on gas-1(fc-21) worm survival.

Series [6] has as its system gas-1(fc21) ndufs2−/− mutant worms. The series is described as follows: In vivo terminal pharyngeal bulb fluorescence (MitoSOX, MitoTracker Green, TMRE) in gas-1(fc21) worms. On the set-up: species or system C. elegans. As for the experimental part: In each panel, n conveys the number of animals studied per conditions. Bars and error bars convey mean and standard error, respectively.
Mitochondrial oxidant burden (MitoSOX Red), membrane potential (tetramethylrhodamine ethyl ester, TMRE), and mitochondrial content (MitoTracker Green FM, MTG) were performed in C. elegans at 20° C. using in vivo terminal pharyngeal bulb relative fluorescence microscopic quantitation. […] Worms were then paralyzed in situ with 5 mg/ml levamisole. Photographs were taken in a darkened room at 160× magnification with a Cool Snap cf2 camera (Nikon, Melville, N.Y.). A CY3 fluorescence cube set (MZFLIII, Leica, Bannockburn, Ill.) was used for MitoSOX and TMRE. A GFP2 filter set (Leica) was used for MitoTracker Green FM. Respective exposure times were 2 s, 320 ms, and 300 ms for each of MitoSOX, TMRE, and MitoTracker Green FM. The resulting images were background subtracted, and the nematode terminal pharyngeal bulb was manually circled to obtain mean intensity of the region by using Fiji Is Just ImageJ. Fluorescence data for each strain were normalized to its same day control to account for day-to-day variation. A minimum of 3 independent experiments of approximately 50 animals per replicate were studied per strain per dye. The significance of the difference in the mean fluorescence intensity between strains under different experimental conditions was assessed by mixed-effect ANOVA, which analyzes potential batch effect due to samples being experimentally prepared, processed, and analyzed on different days by including a batch random effect in the model. A statistical significance threshold was set at P<0.05. All statistical analyses were performed in SAS 9.3.
FIGS. 4A-4E show in vivo quantification of relative mitochondrial oxidant burden, mitochondrial content, and mitochondrial membrane potential in gas-1(fc21) complex I disease worms.

Series [7] deals with gas-1(fc21) mitochondrial complex I disease worms. The series is described as follows: Worm neuromuscular activity by body bend rate analysis. It is filed as in vivo, C. elegans. The following applies: 100 nMol.
Excerpt: FIGS. 5A and 5B: Worm neuromuscular activity as assayed by body bend rate analysis was reduced in gas-1(fc21) mitochondrial complex I disease ndufs2^−/− worms relative to wild-type (N2 Bristol) worms.
as §2

Series [8] has as its system ndufs2−/− zebrafish. Description: ndufs2−/− zebrafish dark-induced swimming activity with low-dose rotenone (Zebrabox). It is filed as in vivo, Danio rerio.
The test system of series [9] is nutrient sensing signaling network (NSSN) gene expression. Description: NSSN gene expression and RNAseq KEGG pathway profiling in gas-1(fc21) worms. It is filed as in vivo, C. elegans. The following applies: 24 hours; for MAPK signaling pathway expression (RNAseq, KEGG): relative to DMSO-only buffer. The text has this: RQ, relative quantitation. […] Pathways marked with a star are also positively modulated in this same mitochondrial disease animal model by combination glucose+nicotinic acid+N-acetylcysteine triple therapy.
It is already evident that epicatechin therapy in some diseases can favorably alter the activities of central NSSN nodes, such as AMPK, that are known to regulate cell proliferation, autophagy, and mitochondrial proliferation. […] The pathways marked with a star can similarly be restored in gas-1(fc21) complex I deficient worms by combination therapy of glucose+nicotinic acid+N-acetylcysteine.

Series [10] relates to cell or animal models of primary RC dysfunction. Description: Overall observations across cell and animal models of primary RC dysfunction.
Series [11] deals with FBXL4-human disease patient fibroblasts. Description: FBXL4 patient fibroblast cell death in galactose. Format: cell-based. The following applies: 20 nM; 72 hours in galactose. On the procedure:
as §1

For series [12], the system named is AB (wild-type) zebrafish. Description: AB wild-type zebrafish swimming activity with high-dose rotenone. It is filed as in vivo, Danio rerio. The text has this: Each symbol indicates one fish. **, p<0.01. ***, p<0.001.
EP07, 11-hydroxyprogesterone. **, p<0.01. Each symbol conveys activity of one well with n=8 animals/well in a 96-well plate, as quantified in dark-cycle analysis in the Zebrabox (Viewpoint).
Swimming activity (Zebrabox) was quantified in first five-minute periods of three consecutive dark cycles across 3 biological replicate experiments. Activity score was normalized to percent of wild-type concurrent controls. […] AB (wild-type) zebrafish had reduced swimming activity with high dose (70 nM) rotenone exposure for 4 hours on 7 dpf.
The indicated agents were added at 5 and 6 dpf, twice a day. 70 nM rotenone was added on 7 dpf. 4 hours later the larvae were transferred into a 96 well plate (1fish per well, 8 wells per condition), 96-well plates were immediately placed into NOLDUS to evaluate swim activity in repeating light-dark exposure. Swim activity effects were averaged in first 5 minutes of each light-off (‘dark’) period across all light on/off cycles.

Setting [13] is: 10 nMol, 72 hours, redosing every 24 hours.

“Also recorded” adds a separate entry of the source.

With `Oc1cc(O)c2c(c1)O[C@@H](c1ccc(O)c(O)c1)[C@@H](O)C2` [(+) epicatechin], the “cell death caused by rotenone (45% cell death)” value is on record as “not” in series [1] (1 nM), “improved” in series [1] (10 nM) and “improved” in [1] (100 nM). In addition, the “podocyte viability upon RC inhibition” value in [1] (10 nM, galactose media, 25 nM rotenone, 48 hours) is reported as “significantly improved”; in [1] (10 nM, glucose media, 35 nM rotenone, 48 hours) it was “significantly improved”. Moreover, the “improvement in cell viability” value in [1] (10 to 100 nanomolar, rotenone treated human cells) is on record as “approximately 50%”. For the same compound, the “effectiveness on podocyte viability compared with the other enantiomer” value in [1] (rotenone, 48 hours) was “more effective than (−) epicatechin”. Also, the “NAD+ deficiency / NADH:NAD+ redox imbalance in liver” value in series [2] is “did not correct”. In [3], the “citrate synthase activity in liver” value is “substantially increased”. For the same compound, the “increase in cellular mitochondrial content compared to baseline” value in series [4] (1 nM) is recorded as 14%; in series [4] (10 nM) it was 21%. Further, the mitochondrial content entry in series [4] (1 nMol to 20 nMol range) is “significantly increased”; in series [6] (1 nMol, 24 hours) it was “significantly rescued”; in series [6] (10 nMol, 24 hours), “significantly rescued”; in series [6] (setting [13]), “significant rescue; also recorded: significantly rescued”; in series [6] (100 nMol, 24 hours), “significantly rescued”. Besides, the “improvement of mitochondrial content” value in series [4] (1 nMol) and in [4] (10 nMol) was 70% throughout. Also, the “lifespan rescue compared to buffer-only treated gas-1(fc21) worms” value in [5] (1 nMol) and in [5] (10 nMol) was “Significant lifespan rescue” in each case. This compound also came in with a median survival in series [5] (1 nMol, buffer-only gas-1(fc21) 19 days) of 23 days. The compound further yielded a maximum survival in series [5] (10 nMol, buffer-only gas-1(fc21) 27 days) of 31 days. The “improvement of mitochondrial membrane potential towards wild type levels” value in series [6] (10 nM, 24 hours) was 62%. The “improvement in mitochondrial content (MitoTracker Green)” value in series [6] (10 nM, 24 hours, most improved concentration) worked out at 39%. The mitochondrial oxidant burden entry is reported as “significantly rescued” in series [6] (1 nMol, 24 hours); “significantly rescued” in [6] (10 nMol, 24 hours); “complete reversal; also recorded: significantly rescued” in series [6] (setting [13]); “significantly rescued” in series [6] (100 nMol, 24 hours). The mitochondrial membrane potential entry in [6] (10 nMol, 24 hours) is listed as “significantly recued”. Moreover, in [6] (all concentrations of 3-log order dose range, 24 hours), the “mitochondrial oxidant burden (MitoSox)” value was “complete normalization”. Also, the “impaired neuromuscular function (body bend rate) toward wild-type” value (from here on “impaired neuromuscular function”) in series [7] is “rescues; also recorded: significantly rescued”. In series [8] (100 nM, low-dose (12 nM) rotenone), the swimming activity entry is on record as “significantly improved”. The “increase in swimming activity toward wild-type controls” value in [8] (100 nMol pre-treatment from 5 dpf, 12 nMol rotenone at 7 dpf) is on record as roughly 25%. In addition, the “Daf-16 (FOXO) expression, downregulated in gas-1(fc21)” value in [9] (10 nM) is on record as “substantially upregulated”. Moreover, the “Par-4 (LKB1) expression, downregulated in gas-1(fc21)” value in series [9] (10 nM) is recorded as “increased”. Besides, in [9] (10 nM, relative to wild-type levels), the “SOD2 (mnSOD) expression, upregulated in gas-1(fc21)” value is “normalized”. The “MAPK signaling pathway expression (RNAseq, KEGG)” value in series [9] was “uniquely and substantially modulated”. The “effectiveness of low (nanomolar range) versus higher (micromolar range) concentrations” value in series [10] (C. elegans and human cell studies) is “more effective than higher”. Also, the adverse effects result in series [10] (cell or animal models of primary RC dysfunction) is “No adverse effects”. Also, the “increased cell death in galactose” value in series [11] is given as “significantly rescued”.

Consider `CC(=O)[C@H]1CC[C@H]2[C@@H]3CC=C4C[C@@H](O)CC[C@]4(C)[C@H]3[C@@H](O)C[C@]12C` [11-β-hydroxypregnenolone], for which the “increase in swimming activity toward AB controls” value in [12] (2 nM pre-treatment from 5 dpf, high-dose (70 nM) rotenone 4 hours at 7 dpf) is recorded as roughly 25%. Further, the swimming activity result in series [12] (6 nM, high-dose (70 nM) rotenone) is listed as “significantly improved”. Also, the “lifespan rescue compared to buffer-only treated gas-1(fc21) worms” value in [5] (1 nMol) and in series [5] (10 nMol) was “Significant lifespan rescue” in each case. In addition, in series [7], the “impaired neuromuscular function” value was “protective; also recorded: significantly rescued”. Also, the “MAPK signaling pathway expression (RNAseq, KEGG)” value in series [9] is “uniquely and substantially modulated”.

`Oc1cc(O)c2c(c1)O[C@H](c1ccc(O)c(O)c1)[C@H](O)C2` [(−) epicatechin]: the “lifespan rescue compared to buffer-only treated gas-1(fc21) worms” value in [5] (10 nMol) and in series [5] (100 nMol) was “Significant lifespan rescue” throughout. For the same compound, in series [7], the “impaired neuromuscular function” value is “significantly rescued”.
